Measurements as given in ChEMBL document CHEMBL5247677, “N-Aryl Indoles as a Novel Class of Potent NaV1.7 Inhibitors” (ACS Med Chem Lett, 2023).
Converted amounts (≈) assume the structure as drawn. The source made the active and inactive calls. The calls are words filed in the database; no cut-off is given here.

Key:
[1] = target: Cytochrome P450 2D6 (Homo sapiens, UniProt P10635); assay: Inhibition of CYP2D6 (unknown origin) at 10 uM; type: ADME
[2] = target: Sodium channel protein type 9 subunit alpha/beta-1/beta-2 (Homo sapiens, UniProt Q15858); assay: Inhibition of human Nav1.7/beta1/2 transfected in HEK293-A cells assessed as inhibition of channel current incubated for 5.5 mins by high-throughput electrophysiology system analysis; type: cell-based
[3] = Aqueous thermodynamic solubility of the compound at pH 6.8 measured after 4 hrs by HPLC-UV analysis; type: physicochemical; conditions: read-out: Therm_solubility
[4] = target: hERG (KCNH2) (Homo sapiens, UniProt Q12809); assay: Inhibition of hERG at 100 uM; type: toxicity
[5] = Bioavailability in ddY mouse at 1 mg/kg, iv by LC-MS/MS analysis; type: ADME, organism-based; conditions: in vivo
[6] = tested on: Mus musculus; assay: Analgesic activity against PSL-induced neuropathic pain mouse model assessed as reversal of thermal hyperalgesia at 1 mg/kg, po measured after 30 mins by plantar test; type: functional
[7] = target: Cytochrome P450 3A4 (Homo sapiens, UniProt P08684); assay: Inhibition of CYP3A4 (unknown origin) at 10 uM; type: ADME
[8] = target: T1, Cytochrome P450 1A2 (Homo sapiens, UniProt P05177); assay: Inhibition of CYP1A2 (unknown origin) at 10 uM; type: ADME
T1 sequence (P05177 whole entry): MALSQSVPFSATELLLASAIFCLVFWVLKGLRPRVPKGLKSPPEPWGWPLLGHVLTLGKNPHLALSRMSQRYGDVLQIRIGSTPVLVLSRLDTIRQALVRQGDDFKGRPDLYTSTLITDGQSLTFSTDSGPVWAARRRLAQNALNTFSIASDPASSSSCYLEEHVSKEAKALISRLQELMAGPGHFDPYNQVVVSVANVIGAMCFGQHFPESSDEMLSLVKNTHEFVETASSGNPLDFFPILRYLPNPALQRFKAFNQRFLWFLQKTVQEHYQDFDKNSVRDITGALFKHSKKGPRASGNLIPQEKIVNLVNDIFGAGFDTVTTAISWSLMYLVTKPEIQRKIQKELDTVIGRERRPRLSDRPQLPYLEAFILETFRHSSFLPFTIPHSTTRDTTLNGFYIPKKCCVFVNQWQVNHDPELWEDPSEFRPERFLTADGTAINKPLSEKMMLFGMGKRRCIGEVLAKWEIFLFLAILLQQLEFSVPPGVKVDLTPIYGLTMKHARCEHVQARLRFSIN

[9] = Glutathione reactivity in human liver microsome assessed as GSH adduct formation; type: ADME; conditions: microsomes
[10] = Tmax in ddY mouse at 1 mg/kg, po by LC-MS/MS analysis; type: ADME, organism-based; conditions: in vivo
[11] = Half life in ddY mouse at 1 mg/kg, po by LC-MS/MS analysis; type: ADME, organism-based; conditions: in vivo
[12] = tested on: Mus musculus; assay: Analgesic activity against PSL-induced neuropathic pain mouse model assessed as reversal of thermal hyperalgesia at 1 mg/kg, po measured after 240 mins by plantar test; type: functional, organism-based
[13] = tested on: Mus musculus; assay: Analgesic activity against PSL-induced neuropathic pain mouse model assessed as reversal of thermal hyperalgesia at 1 mg/kg, po measured after 120 mins by plantar test; type: functional, organism-based
[14] = Total body clearance in ddY mouse at 1 mg/kg, iv by LC-MS/MS analysis; type: ADME, organism-based; conditions: in vivo
[15] = target: Sodium channel protein type 9 subunit alpha/beta-1/beta-2 (Mus musculus, UniProt Q62205); assay: Inhibition of mouse Nav1.7/beta1/2 transfected in HEK293-A cells assessed as inhibition of channel current incubated for 5.5 mins by high-throughput electrophysiology system analysis; type: cell-based
[16] = 1-Octanol/PBS buffer distribution coefficient, log D of the compound at pH 7.4 by HPLC/LC-MS analysis; type: physicochemical
[17] = tested on: Mus musculus; assay: Analgesic activity against PSL-induced neuropathic pain mouse model assessed as reversal of thermal hyperalgesia at 1 mg/kg, po measured after 60 mins by plantar test; type: functional, organism-based
[18] = AUC(0 to 24 hrs) in ddY mouse at 1 mg/kg, po by LC-MS/MS analysis; type: ADME, organism-based; design: dose 1 mg/kg, route po; conditions: in vivo
[19] = Selectivity ratio of IC50 for human Nav1.1/beta1/2 transfected in HEK293-A cells to IC50 for human Nav1.7/beta1/2 transfected in HEK293-A cells
[20] = Ratio of fCmax in ddY mouse plasma at 1 mg/kg, po to IC50 for inhibition of mouse Nav1.7/beta1/2 transfected in HEK293-A cells
[21] = Unbound fraction in mouse plasma; type: ADME, cell-free
[22] = Selectivity ratio of IC50 for human Nav1.5/beta1/2 transfected in HEK293-A cells to IC50 for human Nav1.7/beta1/2 transfected in HEK293-A cells
[23] = target: Cytochrome P450 2C9 (Homo sapiens, UniProt P11712); assay: Inhibition of CYP2C9 (unknown origin) at 10 uM; type: ADME
[24] = Volume of distribution at steady state in ddY mouse at 1 mg/kg, iv by LC-MS/MS analysis; type: ADME, organism-based; conditions: in vivo, read-out: Vdss
[25] = target: Sodium channel protein type 1 subunit alpha/beta-1/beta-2 (Homo sapiens, UniProt P35498); assay: Inhibition of human Nav1.1/beta1/2 transfected in HEK293-A cells assessed as inhibition of channel current incubated for 5.5 mins by high-throughput electrophysiology system analysis; type: toxicity, cell-based
[26] = Cmax in ddY mouse at 1 mg/kg, po by LC-MS/MS analysis; type: ADME, organism-based; design: dose 1 mg/kg, route po; conditions: in vivo
[27] = target: Sodium channel protein type 5 subunit alpha/beta-1/beta-2 (Homo sapiens, UniProt Q14524); assay: Inhibition of human Nav1.5/beta1/2 transfected in HEK293-A cells assessed as inhibition of channel current incubated for 5.5 mins by high-throughput electrophysiology system analysis; type: toxicity, cell-based

Cytochrome P450 2D6, sequence (P10635 whole entry): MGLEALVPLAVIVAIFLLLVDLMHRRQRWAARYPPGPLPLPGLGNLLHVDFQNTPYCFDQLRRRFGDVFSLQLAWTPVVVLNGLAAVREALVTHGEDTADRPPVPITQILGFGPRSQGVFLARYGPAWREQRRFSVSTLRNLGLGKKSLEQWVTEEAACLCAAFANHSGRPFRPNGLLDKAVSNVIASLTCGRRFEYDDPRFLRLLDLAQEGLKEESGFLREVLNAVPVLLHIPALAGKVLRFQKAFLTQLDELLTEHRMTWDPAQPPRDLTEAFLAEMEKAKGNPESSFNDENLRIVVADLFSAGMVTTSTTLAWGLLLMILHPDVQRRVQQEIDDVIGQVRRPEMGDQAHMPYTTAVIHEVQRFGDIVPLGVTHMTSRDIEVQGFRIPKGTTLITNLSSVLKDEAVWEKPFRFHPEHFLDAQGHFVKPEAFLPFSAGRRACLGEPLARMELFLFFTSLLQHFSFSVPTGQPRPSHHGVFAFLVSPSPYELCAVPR
Sodium channel protein type 9 subunit alpha/beta-1/beta-2 (Mus musculus, UniProt Q62205), sequence (Q62205 whole entry): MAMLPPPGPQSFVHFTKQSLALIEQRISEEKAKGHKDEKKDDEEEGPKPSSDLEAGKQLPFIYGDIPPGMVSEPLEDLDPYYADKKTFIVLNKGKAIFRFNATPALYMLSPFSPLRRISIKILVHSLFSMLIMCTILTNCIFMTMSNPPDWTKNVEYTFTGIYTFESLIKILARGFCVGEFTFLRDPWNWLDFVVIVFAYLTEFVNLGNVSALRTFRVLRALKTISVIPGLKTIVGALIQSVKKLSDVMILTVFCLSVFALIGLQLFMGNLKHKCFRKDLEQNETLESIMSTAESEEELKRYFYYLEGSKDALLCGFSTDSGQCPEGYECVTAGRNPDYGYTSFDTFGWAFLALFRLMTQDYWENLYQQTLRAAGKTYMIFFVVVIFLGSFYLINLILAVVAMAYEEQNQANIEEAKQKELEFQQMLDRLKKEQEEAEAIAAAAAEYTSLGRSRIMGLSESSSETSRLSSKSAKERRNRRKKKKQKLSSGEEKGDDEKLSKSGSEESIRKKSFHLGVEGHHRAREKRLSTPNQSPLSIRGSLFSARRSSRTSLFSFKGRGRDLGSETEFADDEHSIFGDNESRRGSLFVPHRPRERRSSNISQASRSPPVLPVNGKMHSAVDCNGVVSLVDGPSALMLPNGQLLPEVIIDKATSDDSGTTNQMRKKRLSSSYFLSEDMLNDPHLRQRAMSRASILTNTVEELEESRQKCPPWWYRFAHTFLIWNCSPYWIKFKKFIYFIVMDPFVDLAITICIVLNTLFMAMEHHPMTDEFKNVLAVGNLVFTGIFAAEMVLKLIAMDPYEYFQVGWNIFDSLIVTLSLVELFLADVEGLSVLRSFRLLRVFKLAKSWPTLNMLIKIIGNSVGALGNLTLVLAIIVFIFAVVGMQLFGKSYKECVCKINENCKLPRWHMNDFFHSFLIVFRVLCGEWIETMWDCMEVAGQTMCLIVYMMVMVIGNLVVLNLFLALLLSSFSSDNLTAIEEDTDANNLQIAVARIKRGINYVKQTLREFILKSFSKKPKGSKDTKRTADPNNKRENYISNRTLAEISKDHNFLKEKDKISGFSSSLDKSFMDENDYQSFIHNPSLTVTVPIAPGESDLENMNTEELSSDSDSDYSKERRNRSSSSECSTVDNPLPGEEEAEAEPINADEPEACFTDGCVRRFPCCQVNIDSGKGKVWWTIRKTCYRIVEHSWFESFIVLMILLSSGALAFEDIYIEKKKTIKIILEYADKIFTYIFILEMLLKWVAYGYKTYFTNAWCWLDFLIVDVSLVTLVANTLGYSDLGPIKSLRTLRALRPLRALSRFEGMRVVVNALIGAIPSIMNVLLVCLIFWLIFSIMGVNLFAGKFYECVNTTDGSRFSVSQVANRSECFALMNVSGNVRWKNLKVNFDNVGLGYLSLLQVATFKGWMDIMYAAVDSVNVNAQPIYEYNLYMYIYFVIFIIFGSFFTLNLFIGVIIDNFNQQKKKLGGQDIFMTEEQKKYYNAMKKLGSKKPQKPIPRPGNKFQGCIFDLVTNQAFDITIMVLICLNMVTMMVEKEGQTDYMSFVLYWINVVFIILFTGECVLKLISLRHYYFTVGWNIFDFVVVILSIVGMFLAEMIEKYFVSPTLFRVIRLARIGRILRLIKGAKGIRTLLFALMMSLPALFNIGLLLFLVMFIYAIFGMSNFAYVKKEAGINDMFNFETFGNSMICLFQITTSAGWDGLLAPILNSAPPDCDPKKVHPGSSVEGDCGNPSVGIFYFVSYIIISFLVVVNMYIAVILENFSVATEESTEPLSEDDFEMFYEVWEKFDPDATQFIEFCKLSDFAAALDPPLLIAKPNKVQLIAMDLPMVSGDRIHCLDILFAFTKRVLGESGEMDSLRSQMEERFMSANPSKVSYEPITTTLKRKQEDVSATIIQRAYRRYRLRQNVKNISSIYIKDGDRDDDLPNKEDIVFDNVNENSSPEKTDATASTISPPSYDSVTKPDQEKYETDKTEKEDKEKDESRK
Sodium channel protein type 9 subunit alpha/beta-1/beta-2 (Mus musculus, UniProt Q62205), sequence (P97952 whole entry, further chain): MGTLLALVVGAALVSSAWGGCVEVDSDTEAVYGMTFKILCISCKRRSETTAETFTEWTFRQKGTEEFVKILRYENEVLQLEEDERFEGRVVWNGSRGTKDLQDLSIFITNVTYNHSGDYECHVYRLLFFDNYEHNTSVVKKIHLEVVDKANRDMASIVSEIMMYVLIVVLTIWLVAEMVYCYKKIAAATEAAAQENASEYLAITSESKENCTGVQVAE
Sodium channel protein type 9 subunit alpha/beta-1/beta-2 (Mus musculus, UniProt Q62205), sequence (Q56A07 whole entry, further chain): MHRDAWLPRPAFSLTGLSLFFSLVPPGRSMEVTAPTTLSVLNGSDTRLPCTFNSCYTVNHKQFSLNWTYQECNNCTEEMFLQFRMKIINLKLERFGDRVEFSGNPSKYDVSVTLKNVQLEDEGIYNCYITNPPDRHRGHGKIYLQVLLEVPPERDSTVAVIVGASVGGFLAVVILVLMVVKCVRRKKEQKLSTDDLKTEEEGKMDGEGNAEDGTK
Cytochrome P450 2C9, sequence (P11712 whole entry): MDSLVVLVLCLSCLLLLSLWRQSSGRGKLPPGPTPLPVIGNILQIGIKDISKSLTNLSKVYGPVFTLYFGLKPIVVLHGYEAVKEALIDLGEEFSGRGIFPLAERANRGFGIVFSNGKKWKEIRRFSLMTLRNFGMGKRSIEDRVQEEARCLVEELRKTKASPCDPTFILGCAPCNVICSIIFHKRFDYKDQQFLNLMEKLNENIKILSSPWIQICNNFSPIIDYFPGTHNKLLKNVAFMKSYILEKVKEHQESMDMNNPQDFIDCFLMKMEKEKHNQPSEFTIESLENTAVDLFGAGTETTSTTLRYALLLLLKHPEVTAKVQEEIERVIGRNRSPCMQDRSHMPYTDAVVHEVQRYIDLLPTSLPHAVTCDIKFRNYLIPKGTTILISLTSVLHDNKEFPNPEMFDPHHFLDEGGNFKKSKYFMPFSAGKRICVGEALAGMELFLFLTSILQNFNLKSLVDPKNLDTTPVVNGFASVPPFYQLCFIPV
Cytochrome P450 3A4, sequence (P08684 whole entry): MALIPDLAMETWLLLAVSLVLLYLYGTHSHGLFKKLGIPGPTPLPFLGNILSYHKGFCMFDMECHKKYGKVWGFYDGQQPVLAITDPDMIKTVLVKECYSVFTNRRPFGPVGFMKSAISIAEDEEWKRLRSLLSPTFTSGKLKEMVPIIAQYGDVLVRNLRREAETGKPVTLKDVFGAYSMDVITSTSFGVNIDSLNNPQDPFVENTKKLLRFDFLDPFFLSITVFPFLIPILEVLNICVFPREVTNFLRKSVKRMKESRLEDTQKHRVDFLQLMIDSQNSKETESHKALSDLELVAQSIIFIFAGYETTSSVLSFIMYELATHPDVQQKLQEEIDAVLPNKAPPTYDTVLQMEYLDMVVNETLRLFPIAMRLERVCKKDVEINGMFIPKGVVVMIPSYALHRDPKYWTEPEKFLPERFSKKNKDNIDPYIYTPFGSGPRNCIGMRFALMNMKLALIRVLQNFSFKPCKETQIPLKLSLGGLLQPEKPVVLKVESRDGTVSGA
hERG (KCNH2), sequence (Q12809 whole entry): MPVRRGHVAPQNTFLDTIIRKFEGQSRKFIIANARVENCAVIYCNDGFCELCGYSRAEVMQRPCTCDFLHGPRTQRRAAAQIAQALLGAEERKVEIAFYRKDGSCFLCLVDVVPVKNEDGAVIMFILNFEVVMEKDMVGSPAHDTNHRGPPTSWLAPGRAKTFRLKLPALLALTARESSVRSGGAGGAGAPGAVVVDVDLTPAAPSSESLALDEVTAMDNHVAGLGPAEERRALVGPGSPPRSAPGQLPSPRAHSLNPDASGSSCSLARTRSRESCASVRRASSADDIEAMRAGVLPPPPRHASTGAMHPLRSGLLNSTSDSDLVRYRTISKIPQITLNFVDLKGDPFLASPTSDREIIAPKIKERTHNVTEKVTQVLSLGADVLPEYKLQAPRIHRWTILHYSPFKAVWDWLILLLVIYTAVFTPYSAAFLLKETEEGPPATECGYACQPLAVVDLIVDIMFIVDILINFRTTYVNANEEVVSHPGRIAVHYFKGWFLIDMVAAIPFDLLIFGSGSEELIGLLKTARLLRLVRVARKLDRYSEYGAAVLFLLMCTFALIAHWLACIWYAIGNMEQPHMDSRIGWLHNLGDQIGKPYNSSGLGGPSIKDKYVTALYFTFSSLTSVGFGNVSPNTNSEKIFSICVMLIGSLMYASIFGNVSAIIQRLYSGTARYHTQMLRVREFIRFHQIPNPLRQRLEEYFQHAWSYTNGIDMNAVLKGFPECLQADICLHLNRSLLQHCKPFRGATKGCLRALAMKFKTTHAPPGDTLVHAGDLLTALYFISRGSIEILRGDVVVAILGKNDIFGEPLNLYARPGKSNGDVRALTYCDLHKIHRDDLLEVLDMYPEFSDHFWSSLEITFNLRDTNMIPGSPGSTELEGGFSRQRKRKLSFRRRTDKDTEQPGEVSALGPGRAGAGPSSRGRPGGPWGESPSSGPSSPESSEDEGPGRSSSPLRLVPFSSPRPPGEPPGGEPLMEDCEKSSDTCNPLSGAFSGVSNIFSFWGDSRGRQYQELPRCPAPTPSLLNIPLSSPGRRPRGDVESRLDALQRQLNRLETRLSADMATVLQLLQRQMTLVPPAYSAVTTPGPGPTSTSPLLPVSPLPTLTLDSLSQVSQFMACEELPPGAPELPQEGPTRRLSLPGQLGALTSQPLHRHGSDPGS

For `Cc1cn(-c2cncc(C(F)(F)F)c2)c2ccc(C(=O)NS(=O)(=O)C3CC3)cc12`, the “inhibition (INH)” value [1] was “Not Active”, the IC50 [2] was 0.015 µM and the solubility thermodynamic at 4 h [3] was 130 µM (≈ 55 µg/mL). The inhibition at 100 µM [4] was 6.9%, the bioavailability [5] was 117% and the Activity [6] was “inactive”. For the same molecule, the “inhibition (INH)” value [7] was “Not Active”, the “inhibition (INH)” value [8] was “Not Active” and the Activity [9] was “Not Active”. The Tmax [10] was 3.3 h, the half-life [11] was 17 h and the Activity [12] was “inactive”. For the same molecule, the Activity [13] was “Active”, the clearance [14] was 1.01 mL/min/kg and the IC50 [15] was 0.061 µM. The logD [16] was 1, the Activity [17] was “Active” and the AUC(0-t) [18] was 41.5 µM·h. The “Ratio IC50” value [19] was 440, the Ratio [20] was 0.2 and the fraction unbound [21] was 0.005. The “Ratio IC50” value [22] was 930, the “inhibition (INH)” value [23] was “Not Active” and the Vd [24] was 0.81 L/kg. It also gave an IC50 [25] of 6.6 µM, a Cmax [26] of 2300 nM and an IC50 [27] of 14 µM.
